Measured values as given in patent publication US20020035061A1, “COMPOSITIONS AND METHODS FOR TREATING INFECTIONS USING CATIONIC PEPTIDES ALONE OR IN COMBINATION WITH ANTIBIOTICS” (priority 1996, published 2002).

How the values were obtained:
H. influenzae = experiment: Agarose dilution assay (MIC); assay type: cell-based; settings: H. influenzae strain HIN002
E. faecium = assay type: cell-based; settings: E. faecium strain EFM001
[1] = system: MSSA (Smith, ATCC # 19640); experiment: In vivo efficacy, MSSA infection; design: species or system S. aureus; settings: formulation D, 60 min post-infection, end of eight day observation
P. aeruginosa = assay type: cell-based
S. pneumoniae = experiment: Agarose dilution assay (MIC); assay type: cell-based; settings: S. pneumoniae strain SBSPN3
bacterial isolates = experiment: microbe, parasite or virus in culture; assay type: cell-based
E. coli = assay type: cell-based

ILRWPWWPWRRK [MBI 11B7CN]
MIC (H. influenzae): >128 µg/mL | MIC (E. faecium): 4 µg/mL | % Survival ([1]; 12 mg/kg ip): 0% | % Survival ([1]; 18 mg/kg ip): 10% | % Survival ([1]; 24 mg/kg ip): 60% | MIC, Peptide (P. aeruginosa; P. aeruginosa PA004, unmodified parent peptide): 128 µg/mL | MIC (P. aeruginosa; P. aeruginosa strain PA004): 128 µg/mL | MIC (S. pneumoniae): >128 µg/mL | Peptide MIC Alone (bacterial isolates; 2. Ceftriaxone, A. baumannii ABI002): 32 µg/mL | Peptide MIC Alone (bacterial isolates; 2. Ceftriaxone, A. baumannii ABI006): 32 µg/mL | Peptide MIC Alone (bacterial isolates; 2. Ceftriaxone, B. cepacia BC003): >128 µg/mL | Peptide MIC Alone (bacterial isolates; 2. Ceftriaxone, P. aeruginosa PA008): 128 µg/mL | Peptide MIC Alone (bacterial isolates; 2. Ceftriaxone, P. aeruginosa PA024): >128 µg/mL | Peptide MIC Alone (bacterial isolates; 2. Ceftriaxone, S. maltophilia SMA020): 16 µg/mL | Peptide MIC Alone (bacterial isolates; 2. Ceftriaxone, S. maltophilia SMA021): 32 µg/mL | Peptide MIC Alone (bacterial isolates; 2. Ceftriaxone, S. maltophilia SMA023): 128 µg/mL | Ceftriaxone MIC + Peptide (bacterial isolates; A. baumannii ABI002): 8 µg/mL | Peptide MIC + Ceftriaxone (bacterial isolates; A. baumannii ABI002): 8 µg/mL | Ceftriaxone MIC + Peptide (bacterial isolates; A. baumannii ABI006): 16 µg/mL | Ceftriaxone MIC + Peptide (bacterial isolates; B. cepacia BC003): 16 µg/mL | Peptide MIC + Piperacillin (bacterial isolates; E. cloacae 6): 16 µg/mL | Piperacillin MIC + Peptide (bacterial isolates; E. cloacae 6): 16 µg/mL | Peptide MIC Alone (bacterial isolates; E. cloacae 6, Piperacillin section): 32 µg/mL | Peptide MIC + Piperacillin (bacterial isolates; E. cloacae 9): 16 µg/mL | Piperacillin MIC + Peptide (bacterial isolates; E. cloacae 9): 1 µg/mL | Peptide MIC Alone (bacterial isolates; E. cloacae 9, Piperacillin section): 32 µg/mL | Peptide MIC + Piperacillin (bacterial isolates; E. cloacae 10): 16 µg/mL | Piperacillin MIC + Peptide (bacterial isolates; E. cloacae 10): 0.5 µg/mL | Peptide MIC Alone (bacterial isolates; E. cloacae 10, Piperacillin section): 32 µg/mL | Peptide MIC + Piperacillin (bacterial isolates; H. influenzae 1): 0.125 µg/mL | Piperacillin MIC + Peptide (bacterial isolates; H. influenzae 1): 32 µg/mL | Peptide MIC Alone (bacterial isolates; H. influenzae 1, Piperacillin section): >128 µg/mL | Peptide MIC + Piperacillin (bacterial isolates; H. influenzae SB1): 0.125 µg/mL | Piperacillin MIC + Peptide (bacterial isolates; H. influenzae SB1): 0.25 µg/mL | Peptide MIC Alone (bacterial isolates; H. influenzae SB1, Piperacillin section): >128 µg/mL | Peptide MIC + Piperacillin (bacterial isolates; P. aeruginosa 23): 64 µg/mL | Piperacillin MIC + Peptide (bacterial isolates; P. aeruginosa 23): 2 µg/mL | Peptide MIC Alone (bacterial isolates; P. aeruginosa 23, Piperacillin section): 128 µg/mL | Ceftriaxone MIC + Peptide (bacterial isolates; P. aeruginosa PA008): 16 µg/mL | Peptide MIC + Ceftriaxone (bacterial isolates; P. aeruginosa PA008): 16 µg/mL | Ceftriaxone MIC + Peptide (bacterial isolates; P. aeruginosa PA024): 32 µg/mL | Peptide MIC + Ceftriaxone (bacterial isolates; P. aeruginosa PA024): 0.125 µg/mL | Peptide MIC + Piperacillin (bacterial isolates; S. aureus 19 MRSA): 1 µg/mL | Piperacillin MIC + Peptide (bacterial isolates; S. aureus 19 MRSA): 32 µg/mL | Peptide MIC Alone (bacterial isolates; S. aureus 19 MRSA, Piperacillin section): 4 µg/mL | Peptide MIC + Piperacillin (bacterial isolates; S. maltophilia 5): 64 µg/mL | Piperacillin MIC + Peptide (bacterial isolates; S. maltophilia 5): 64 µg/mL | Peptide MIC Alone (bacterial isolates; S. maltophilia 5, Piperacillin section): >128 µg/mL | Peptide MIC + Piperacillin (bacterial isolates; S. maltophilia 9): 64 µg/mL | Piperacillin MIC + Peptide (bacterial isolates; S. maltophilia 9): 64 µg/mL | Peptide MIC Alone (bacterial isolates; S. maltophilia 9, Piperacillin section): >128 µg/mL | Peptide MIC + Piperacillin (bacterial isolates; S. maltophilia 11): 32 µg/mL | Piperacillin MIC + Peptide (bacterial isolates; S. maltophilia 11): 64 µg/mL | Peptide MIC Alone (bacterial isolates; S. maltophilia 11, Piperacillin section): >128 µg/mL | Ceftriaxone MIC + Peptide (bacterial isolates; S. maltophilia SMA020): 64 µg/mL | Peptide MIC + Ceftriaxone (bacterial isolates; S. maltophilia SMA020): 8 µg/mL | Ceftriaxone MIC + Peptide (bacterial isolates; S. maltophilia SMA021): 64 µg/mL | Peptide MIC + Ceftriaxone (bacterial isolates; S. maltophilia SMA021): 8 µg/mL | Ceftriaxone MIC + Peptide (bacterial isolates; S. maltophilia SMA023): 32 µg/mL | Peptide MIC + Ceftriaxone (bacterial isolates; S. maltophilia SMA023): 16 µg/mL | Peptide MIC + Piperacillin (bacterial isolates; S. marcescens 1): 4 µg/mL | Piperacillin MIC + Peptide (bacterial isolates; S. marcescens 1): 8 µg/mL | Peptide MIC Alone (bacterial isolates; S. marcescens 1, Piperacillin section): >128 µg/mL | FIC (bacterial isolates; peptide + Ceftriaxone, A. baumannii ABI002): 0.50 | FIC (bacterial isolates; peptide + Ceftriaxone, A. baumannii ABI006): 0.25 | FIC (bacterial isolates; peptide + Ceftriaxone, B. cepacia BC003): 0.52 | FIC (bacterial isolates; peptide + Ceftriaxone, P. aeruginosa PA008): 0.25 | FIC (bacterial isolates; peptide + Ceftriaxone, P. aeruginosa PA024): 0.50 | FIC (bacterial isolates; peptide + Ceftriaxone, S. maltophilia SMA020): 0.75 | FIC (bacterial isolates; peptide + Ceftriaxone, S. maltophilia SMA021): 0.50 | FIC (bacterial isolates; peptide + Ceftriaxone, S. maltophilia SMA023): 0.38 | FIC (bacterial isolates; peptide + Piperacillin, E. cloacae 6): 0.56 | FIC (bacterial isolates; peptide + Piperacillin, E. cloacae 9): 0.50 | FIC (bacterial isolates; peptide + Piperacillin, E. cloacae 10): 0.50 | FIC (bacterial isolates; peptide + Piperacillin, H. influenzae 1): 0.50 | FIC (bacterial isolates; peptide + Piperacillin, H. influenzae SB1): 0.50 | FIC (bacterial isolates; peptide + Piperacillin, P. aeruginosa 23): 0.56 | FIC (bacterial isolates; peptide + Piperacillin, S. aureus 19 MRSA): 0.50 | FIC (bacterial isolates; peptide + Piperacillin, S. maltophilia 5): 0.50 | FIC (bacterial isolates; peptide + Piperacillin, S. maltophilia 9): 0.50 | FIC (bacterial isolates; peptide + Piperacillin, S. maltophilia 11): 0.38 | FIC (bacterial isolates; peptide + Piperacillin, S. marcescens 1): 0.27 | MIC, Peptide (E. coli; E. coli ECO005, unmodified parent peptide): 4 µg/mL | MIC (E. coli; E. coli strain ECO002): 8 µg/mL
